Assays:
MCF7 cells = assay: MTT cell vitality assay; format: cell-based, human; conditions: MCF7, 24 h, normoxia, Fig. 3
Experimental: (§1) The MTT assay is based on the reduction in the mitochondria of metabolically active cells by succinate dehydrogenase obtaining a precipitation of purple formazan crystal. The assay was carried out using the same protocol reported by Azzi et al[42]. Briefly, AB22, ZL34 and MCF7 cells were seeded at a density of 7 × 10^3, 5 × 10^3 and 1 × 10^4 cells per well, respectively, in a 96-well microtiter plate. After 24 h at 37 °C and 5% CO2, they were incubated with increasing concentration of CA-SF or AZ for 24 h in a condition of normoxia at 37 °C and 5% CO2 by adding stock solutions in dimethyl sulfoxide (DMSO). In all the conditions the concentration of DMSO during the cell incubation was maintained under 0.25% (v/v) in cell medium. After the incubation, the medium was removed and each well was incubated with thiazolyl blue tetrazolium bromide (Sigma) dissolved in the medium at a concentration of 0.45 mg/mL for 4 h at 37 °C and 5% CO2. Then, after medium elimination, 150 µL of DMSO were added into each well to solubilise the formazan salt crystals produced by the metabolism of live cells and the microplate was incubated at room temperature (RT) for 30 min. Finally, absorbance was measured at 570 nm using an iMark microplate reader (Biorad). Cell vitality was reported as the percentage of […] cells observed in the treated samples relative to that observed in the non-treated control cells.

ZL34 cells = assay: MTT cell vitality assay; format: cell-based, human; conditions: ZL34, 24 h, normoxia, Fig. 3
Experimental: as §1

AB22 cells = assay: MTT cell vitality assay; format: cell-based, mouse; conditions: AB22, 24 h, normoxia, Fig. 3
Experimental: as §1

[1] = clinical applications; no reference given; cited from earlier work

| Molecule | percentage of viable cells with increasing concentration (MTT) (MCF7 cells) | percentage of viable cells with increasing concentration (MTT) (ZL34 cells) | percentage of viable cells with increasing concentration (MTT) (AB22 cells) | boron concentration ratio between tumour and normal tissues [1] |
| --- | --- | --- | --- | --- |
| CC(=O)Nc1nnc(S(N)(=O)=O)s1 [AZ, 5-acetamido-1,3,4-thiadiazole-2-sulfonamide, reference compound] | negligible | negligible | negligible |  |
| N[C@@H](Cc1ccc(B(O)O)cc1)C(=O)O [BPA, L-para-boronphenylalanine] |  |  |  | 3–5 |
| sodium mercaptoundecaidro-closo-dodecaborate [BSH] |  |  |  | 3–5 |

Source: PMC7648750, “In vitro and in vivo BNCT investigations using a carborane containing sulfonamide targeting CAIX epitopes on malignant pleural mesothelioma and breast cancer cells” (Scientific Reports, 2020)
